Test results: patent US20190192699A1, “NUCLEAR IMAGING AND RADIOTHERAPEUTICS AGENTS TARGETING CARBONIC ANHYDRASE IX AND USES THEREOF” (THE JOHNS HOPKINS UNIVERSITY, priority 2016, published 2019)
Several values for one entry are separate records, joined by “and”; a condition that tells them apart may be missing. Equal values may be shown once. Entries after “also recorded” stand apart in the source; their conditions may differ.

Assays:
SK-RC-52 xenografts = assay: Biodistribution of [111In]XYIMSR-01 and [177Lu]XYIMSR-01; type: in vivo, mice
Description: (§1) Cell Lines and Mouse Models. Animal experiments were performed in accordance with protocols approved by the Johns Hopkins Animal Care and Use Committee (ACUC). Six-week-old female NOD/SCID mice were purchased from the Animal Resource Core of the Sidney Kimmel Comprehensive Cancer Center of Johns Hopkins and were subcutaneously injected in the lower left flank or upper right flank with 1×10^6 SK-RC-52 cells in RPMI 1640 GlutaMAX™ media (Life Technologies, Frederick, Md.) supplemented with 1% fetal bovine serum (FBS). Mice were monitored for tumor size and used for SPECT/CT imaging when the size of the tumor reached 100 mm^3.
Biodistribution of [^111In]XYIMSR-01 and [^177Lu]XYIMSR-01. Mice bearing SK-RC-52 xenografts at lower left flank were injected intravenously with 740 kBq (20 μCi) of [^111In]XYIMSR-01, or [^177Lu]XYIMSR-01 in 200 μL of PBS. For competitive blocking, same tumor bearing mice were injected with 740 kBq (20 μCi) of [^111In]XYIMSR-01 and 200 nmole of 1 in 200 μL of PBS. At 1 h, 4 h, 8 h, 24 h and 48 h post-injection, mice were sacrificed by cervical dislocation and the blood was immediately collected by cardiac puncture. Heart, lungs, pancreas, spleen, fat, brain, muscle, small intestines, liver, stomach, kidney, urinary bladder, and tumor were collected. Each organ was weighed and the tissue radioactivity was measured with an automated gamma counter (1282 Compugamma CS, Pharmacia/LKBNuclear, Inc., Mt. Waverly, Vic. Australia). The percentage of injected dose per gram of tissue (% ID/g) was calculated by comparison with samples of a standard dilution of the initial dose. All measurements were corrected for radioactive decay.
Data were expressed as mean±standard deviation (SD). Prism software (GraphPAD, San Diego, Calif.) was used to determine statistical significance. Statistical significance was calculated using a paired t test. P-values […] were considered significant.

[1] = tested on: CAIX-expressing SK-RC-52 tumors; assay: SPECT/CT imaging of [111In]XYIMSR-01; type: in vivo, mice; details: 14.8 MBq (400 μCi) via tail vein
Description: as §1
SPECT/CT imaging of [^111In]XYIMSR-01. Mice harboring subcutaneous SK-RC-52 tumors with the lower left flank were injected with 14.8 MBq (400 μCi) of [^111In]XYIMSR-01 in 250 μL of PBS (pH=7.0) intravenously (tail vein). Anesthesia was then induced with 3% isofluorane and maintained at 2% isoflurane. Physiologic temperature was maintained with an external light source while the mouse was on the gantry. Imaging employed a CT-equipped Gamma Medica-Ideas SPECT scanner (Northridge, Calif.). SPECT data were acquired in 64 projections at 65 s per projection using medium energy pinhole collimators. A CT scan was performed in 512 projections at the end of each SPECT scan for anatomic co-registration. […]

[2] = 24 hr + Block (200 nmole of 1 co-injected)
[3] = 48 hr + Block (200 nmole of 1 co-injected)

## CC(CCC(=O)N[C@@H](CC(=O)N[C@@H](CC(=O)N[C@@H](CCCCn1cc(CCCC(=O)Nc2nnc(S(N)(=O)=O)s2)nn1)C(=O)NCCOCCOCCNC(=O)CN1CCN(CC(=O)[O-])CCN(CC(=O)[O-])CCN(CC(=O)[O-])CC1)C(=O)O)C(=O)O)(c1ccc(O)cc1)c1ccc(O)cc1.[111In+3] [[^111In]XYIMSR-01]
SK-RC-52 xenografts; 1 hr post-injection
  Biodistribution: Bladder: 4.90 ± 4.96 % ID/g
  Biodistribution: Blood: 1.34 ± 0.17 % ID/g
  Biodistribution: Brain: 1.23 ± 1.10 % ID/g
  Biodistribution: Fat: 1.03 ± 0.24 % ID/g
  Biodistribution: Heart: 5.98 ± 0.53 % ID/g
  Biodistribution: Kidney: 71.26 ± 8.74 % ID/g
  Biodistribution: Liver: 8.36 ± 0.73 % ID/g
  Biodistribution: Lung: 45.85 ± 19.89 % ID/g
  Biodistribution: Muscle: 2.34 ± 2.19 % ID/g
  Biodistribution: Pancreas: 3.81 ± 0.72 % ID/g
  Biodistribution: Small intestine: 9.37 ± 1.26 % ID/g
  Biodistribution: Spleen: 0.52 ± 0.04 % ID/g
  Biodistribution: Stomach: 16.71 ± 2.46 % ID/g
  Biodistribution: Tumor: 26 % ID/g and 26.01 ± 5.74 % ID/g
  Tumor/Blood ratio: 19.7 and 19.7 ± 4.8
  Tumor/Kidney ratio: 0.36 ± 0.06
  Tumor/Muscle ratio: 12.7 and 12.7 ± 5.8
SK-RC-52 xenografts; 4 hr post-injection
  Biodistribution: Bladder: 2.68 ± 1.89 % ID/g
  Biodistribution: Blood: 0.65 ± 0.06 % ID/g
  Biodistribution: Brain: 0.45 ± 0.06 % ID/g
  Biodistribution: Fat: 0.42 ± 0.22 % ID/g
  Biodistribution: Heart: 2.91 ± 0.45 % ID/g
  Biodistribution: Kidney: 41.52 ± 6.07 % ID/g
  Biodistribution: Liver: 4.00 ± 0.8 % ID/g
  Biodistribution: Lung: 17.85 ± 3.55 % ID/g
  Biodistribution: Muscle: 1.01 ± 0.28 % ID/g
  Biodistribution: Pancreas: 1.54 ± 0.40 % ID/g
  Biodistribution: Small intestine: 4.27 ± 0.69 % ID/g
  Biodistribution: Spleen: 0.51 ± 0.08 % ID/g
  Biodistribution: Stomach: 7.91 ± 1.28 % ID/g
  Biodistribution: Tumor: 20.8 % ID/g and 20.83 ± 6.25 % ID/g
  Tumor/Blood ratio: 31.9 ± 9.4
  Tumor/Kidney ratio: 0.50 ± 0.15
  Tumor/Muscle ratio: 21.4 ± 7.2
SK-RC-52 xenografts; 8 hr post-injection
  Biodistribution: Bladder: 2.28 ± 0.51 % ID/g
  Biodistribution: Blood: 0.48 ± 0.02 % ID/g
  Biodistribution: Brain: 0.59 ± 0.09 % ID/g
  Biodistribution: Fat: 0.45 ± 0.08 % ID/g
  Biodistribution: Heart: 2.61 ± 0.35 % ID/g
  Biodistribution: Kidney: 28.79 ± 21.35 % ID/g
  Biodistribution: Liver: 3.65 ± 0.65 % ID/g
  Biodistribution: Lung: 17.39 ± 8.99 % ID/g
  Biodistribution: Muscle: 1.09 ± 0.15 % ID/g
  Biodistribution: Pancreas: 1.61 ± 0.28 % ID/g
  Biodistribution: Small intestine: 4.31 ± 0.67 % ID/g
  Biodistribution: Spleen: 0.64 ± 0.07 % ID/g
  Biodistribution: Stomach: 8.74 ± 1.26 % ID/g
  Biodistribution: Tumor: 34.0 % ID/g and 34.00 ± 15.16 % ID/g
  Tumor/Blood ratio: 77.0 ± 32.5
  Tumor/Kidney ratio: 3.1 ± 3.1
  Tumor/Muscle ratio: 34.2 ± 16.0
SK-RC-52 xenografts; 24 h
  Tumor/liver ratio: 8.5
SK-RC-52 xenografts; 24 h and 48 h post injection
  uptake to tumors with simultaneously injected non-radioactive competitor 1: ~1%
SK-RC-52 xenografts; 24 h post-injection
  tumor/organ ratio, all other organs: ≥ 10
SK-RC-52 xenografts; [2]
  Biodistribution: Bladder: 0.20 ± 0.07 % ID/g
  Biodistribution: Blood: 0.03 ± 0.00 % ID/g
  Biodistribution: Brain: 0.03 ± 0.00 % ID/g
  Biodistribution: Fat: 0.02 ± 0.01 % ID/g
  Biodistribution: Heart: 0.04 ± 0.01 % ID/g
  Biodistribution: Kidney: 0.68 ± 0.14 % ID/g
  Biodistribution: Liver: 0.10 ± 0.02 % ID/g
  Biodistribution: Lung: 0.12 ± 0.02 % ID/g
  Biodistribution: Muscle: 0.02 ± 0.00 % ID/g
  Biodistribution: Pancreas: 0.03 ± 0.00 % ID/g
  Biodistribution: Small intestine: 0.08 ± 0.01 % ID/g
  Biodistribution: Spleen: 0.08 ± 0.01 % ID/g
  Biodistribution: Stomach: 0.14 ± 0.02 % ID/g
  Biodistribution: Tumor: 1.41 ± 0.20 % ID/g
  Tumor/Blood ratio: 45.2 ± 9.7
  Tumor/Kidney ratio: 2.1 ± 0.3
  Tumor/Muscle ratio: 91.4 ± 11.1
SK-RC-52 xenografts; 24 hr post-injection
  Biodistribution: Bladder: 0.74 ± 0.17 % ID/g
  Biodistribution: Blood: 0.15 ± 0.02 % ID/g
  Biodistribution: Brain: 0.71 ± 0.85 % ID/g
  Biodistribution: Fat: 0.28 ± 0.19 % ID/g
  Biodistribution: Heart: 1.16 ± 0.20 % ID/g
  Biodistribution: Kidney: 15.29 ± 1.69 % ID/g
  Biodistribution: Liver: 3.02 ± 3.46 % ID/g
  Biodistribution: Lung: 11.01 ± 3.71 % ID/g
  Biodistribution: Muscle: 0.35 ± 0.12 % ID/g
  Biodistribution: Pancreas: 0.69 ± 0.18 % ID/g
  Biodistribution: Small intestine: 2.11 ± 0.33 % ID/g
  Biodistribution: Spleen: 0.69 ± 0.39 % ID/g
  Biodistribution: Stomach: 3.31 ± 1.25 % ID/g
  Biodistribution: Tumor: 25.6 % ID/g and 25.62 ± 17.67 % ID/g
  Tumor/Blood ratio: 178.1±145.4 and 178
  Tumor/Kidney ratio: 1.7±1.2 and 1.7
  Tumor/Muscle ratio: 68.4±29.0 and 68
SK-RC-52 xenografts; [3]
  Biodistribution: Bladder: 0.14 ± 0.03 % ID/g
  Biodistribution: Blood: 0.03 ± 0.00 % ID/g
  Biodistribution: Brain: 0.03 ± 0.01 % ID/g
  Biodistribution: Fat: 0.03 ± 0.01 % ID/g
  Biodistribution: Heart: 0.04 ± 0.01 % ID/g
  Biodistribution: Kidney: 0.45 ± 0.09 % ID/g
  Biodistribution: Liver: 0.13 ± 0.04 % ID/g
  Biodistribution: Lung: 0.09 ± 0.02 % ID/g
  Biodistribution: Muscle: 0.02 ± 0.00 % ID/g
  Biodistribution: Pancreas: 0.03 ± 0.01 % ID/g
  Biodistribution: Small intestine: 0.08 ± 0.02 % ID/g
  Biodistribution: Spleen: 0.11 ± 0.03 % ID/g
  Biodistribution: Stomach: 0.14 ± 0.03 % ID/g
  Biodistribution: Tumor: 1.22 ± 0.54 % ID/g
  Tumor/Blood ratio: 45.4 ± 13.8
  Tumor/Kidney ratio: 2.7 ± 0.8
  Tumor/Muscle ratio: 75.1 ± 17.7
SK-RC-52 xenografts; 48 hr post-injection
  Biodistribution: Bladder: 0.38 ± 0.18 % ID/g
  Biodistribution: Blood: 0.06 ± 0.02 % ID/g
  Biodistribution: Brain: 0.41 ± 0.05 % ID/g
  Biodistribution: Fat: 0.25 ± 0.08 % ID/g
  Biodistribution: Heart: 0.84 ± 0.16 % ID/g
  Biodistribution: Kidney: 8.78 ± 1.89 % ID/g
  Biodistribution: Liver: 1.65 ± 0.26 % ID/g
  Biodistribution: Lung: 9.22 ± 1.25 % ID/g
  Biodistribution: Muscle: 0.39 ± 0.28 % ID/g
  Biodistribution: Pancreas: 0.59 ± 0.18 % ID/g
  Biodistribution: Small intestine: 1.22 ± 0.44 % ID/g
  Biodistribution: Spleen: 0.67 ± 0.13 % ID/g
  Biodistribution: Stomach: 1.82 ± 0.43 % ID/g
  Biodistribution: Tumor: 13.9 % ID/g and 13.92 ± 6.67 % ID/g
  Tumor/Blood ratio: 212.0 ± 41.4
  Tumor/Kidney ratio: 1.5 ± 0.5
  Tumor/Muscle ratio: 52.0 ± 21.0
[1]
  SPECT/CT tumor imaging finding: radiotracer uptake in tumor as early as 1 h post-injection; also recorded: radiotracer uptake was observed within the tumors at 1 h post-injection; also recorded: enabled specific imaging of CAIX-expressing SK-RC-52 tumors
